Like-named read-outs stand apart in the source and are kept apart here.
What was measured:
[1] = tested on: COLO357; assay: MTT cell viability / proliferation assay, COLO357; assay type: cell-based
Protocol: (§1) More specifically, the tumor cell lines MCF-7, MDA-MB 231 and COLO 357 were maintained in Dulbecco's modifed Eagle's medium (DMEM) with phenol red. […] The cell lines were cultured in a humidified incubator in an atmosphere of 5% CO2 and were maintained in continuous exponential growth by twice a week passage. Adherent cells at a logarithmic phase were detached by addition of 2-3 ml of trypsin (Gibco), 0.02% EDTA mixture and incubation at 37° C. […] Cells were incubated for 24 h at 37° C. to resume exponential growth. The test compounds were dissolved in DMSO (final concentration 0.1%) and added to the cells 24 h after seeding at varying concentrations. Control wells containing the culture medium, were included in each experiment. Cell proliferation was evaluated after 72 h by means of MTT assay. The biological effects of these compounds were studied against the hormone independent breast (BT20) and prostate (PC3) cancers as well as K-ras positive (Colo357) and K-ras negative (B×PC3) pancreatic cancer cell lines.

[2] = tested on: BxPC3; assay: MTT cell viability / proliferation assay, BxPC3; assay type: cell-based
Protocol: as §1

[3] = tested on: MCF-7; assay: MTT cell viability assay, MCF-7; assay type: cell-based
Protocol: (§2) The compounds were tested in multiple panels of breast (MCF-7, T47D, BT20 and MDA-MB231), prostate (PC3), and pancreatic (BxPC3, COLO357) cancer cell lines, using the dye 3-[4,5 dimethylthiazol-2-yl]-2,5 diphenyltetrazolium bromide (MTT assay) according to a method described in Banerjee, et al., Cancer Research. 2002 62, 4945.
(§3) More specifically, the tumor cell lines MCF-7, MDA-MB 231 and COLO 357 were maintained in Dulbecco's modifed Eagle's medium (DMEM) with phenol red. Cell lines T47D, BT20, PC3 and BxPC3 were routinely cultured in RPMI medium, each medium being supplemented with Penicillin (50U/ml), Streptomycin (50 μg/ml) and 10% fetal calf serum (FCS) (Gibco, Myclone). The cell lines were cultured in a humidified incubator in an atmosphere of 5% CO2 and were maintained in continuous exponential growth by twice a week passage.
(§4) Adherent cells at a logarithmic phase were detached by addition of 2-3 ml of trypsin (Gibco), 0.02% EDTA mixture and incubation at 37° C. Cells were plated (100 μL per well) in 48 well flat bottom microtiter plates at densities of 2000 to 5000 per cm^2 (MCF-7, MDA-MB321, T47D, BT20, PC3, B×PC3, COLO357) cells per well. Cells were incubated for 24 h at 37° C. to resume exponential growth. The test compounds were dissolved in DMSO (final concentration 0.1%) and added to the cells 24 h after seeding at varying concentrations. Control wells containing the culture medium, were included in each experiment. Cell proliferation was evaluated after 72 h by means of MTT assay.

[4] = biological target: T1, Akt1/PKBα, active enzyme (Homo sapiens, UniProt P31749); assay: Fluorescence polarization Akt kinase assay; assay type: biochemical
T1 construct: purchased Upstate Biotechnology 14-276
T1 sequence (P31749 whole entry): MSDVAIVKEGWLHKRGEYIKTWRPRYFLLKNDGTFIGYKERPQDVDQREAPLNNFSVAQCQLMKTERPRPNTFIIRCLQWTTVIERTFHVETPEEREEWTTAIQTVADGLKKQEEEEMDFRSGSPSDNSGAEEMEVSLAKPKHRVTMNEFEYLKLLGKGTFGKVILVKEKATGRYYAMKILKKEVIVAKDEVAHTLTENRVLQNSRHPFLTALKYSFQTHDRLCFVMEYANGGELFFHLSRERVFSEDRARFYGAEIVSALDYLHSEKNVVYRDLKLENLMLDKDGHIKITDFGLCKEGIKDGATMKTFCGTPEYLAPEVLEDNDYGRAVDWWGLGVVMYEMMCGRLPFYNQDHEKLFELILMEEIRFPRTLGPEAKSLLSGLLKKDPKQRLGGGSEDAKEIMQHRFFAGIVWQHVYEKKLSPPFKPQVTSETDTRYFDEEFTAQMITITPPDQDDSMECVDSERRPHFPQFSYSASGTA
Protocol: The serine threonine Akt kinase reaction was carried out in 96 well black plates in a total volume of 100 μl using Ser/Thr kinase polarization based assay kit from Invitrogen Part # P3103. Briefly, the Akt kinase assay reaction was set up in a total volume of 40 μl in the presence of different concentrations of inhibitor. Stock solutions of test compounds were made in DMSO. From DMSO stocks, 4× solutions of test compounds were prepared in 1× assay dilution buffer; 10 μl of this drug solution was used in the assay. […] The plate was incubated at 30° C. for 30 minutes. Enzyme reaction was quenched with 10 μl of 50 mM EDTA for 5 minutes. Anti phosphor serine antibody was added 25 μl/well followed by 10 μl of fluorescent tracer. The total volume was made up to 100 μl by adding 15 μl of fluorescence polarization assay dilution buffer. Appropriate controls and blanks were prepared. The plate was incubated for 1 h at RT and was analyzed for polarization at 435 excitation and 535 emission wavelength on Tecan Ultra microplate reader. Polarization values were normalized to the control and were plotted against log concentration of test compounds using Graph Pad Prism software. Sigmoidal dose response curve analysis was used to calculate the IC50 of test compounds.

[5] = tested on: PC3; assay: MTT cell viability / proliferation assay, PC3; assay type: cell-based, human
Protocol: as §1

[6] = tested on: BT20; assay: MTT cell viability / proliferation assay, BT20; assay type: cell-based
Protocol: as §1

[7] = tested on: MDA-MB 231; assay: MTT cell viability assay, MDA-MB 231; assay type: cell-based
Protocol: as §2, §3, §4

[8] = tested on: breast, prostate and pancreatic cancer cell lines; assay: MTT assay, statements over several cancer cell lines; assay type: cell-based
Protocol: as §2, §3, §4
The biological effects of these compounds were studied against the hormone independent breast (BT20) and prostate (PC3) cancers as well as K-ras positive (Colo357) and K-ras negative (B×PC3) pancreatic cancer cell lines.

[9] = tested on: T47D; assay: MTT cell viability assay, T47D; assay type: cell-based; details: 72 h
Protocol: as §2, §3
as §4, with “The test compounds were dissolved in DMSO (final concentration 0.1%) and added to the cells 24 h after seeding at varying concentrations. Control wells containing the culture medium, were included in each experiment.” left out

[10] = tested on: COLO 357 cells; assay: Orthotopic pancreatic tumor model using COLO 357 cells; assay type: in vivo
Protocol: The redox sensitive transcription factor NF-kB, is downstream of the Akt kinase protein and plays major role in the cell proliferation and metastasis and resistance in major cancers such as breast, prostate and pancreatic. […] Nuclear proteins were extracted from the tumor tissue as described previously (see, for example, Banerjee, et al, Cancer Research, Vo. 65, p. 9064 (2005)) and kept at −70° C. until use. Protein concentration was determined using the bicinchonic acid assay kit with BSA as the standard (Pierce Chemical Co., Rockford, Ill.). The incubation mixture included 25 mM DTT and 2.5% Tween 20 in a binding buffer. The DNA-protein complex formed was separated from free oligonucleotide on 8.0% native polyacralyamide gel using buffer containing 50 mM Tris, 200 mm glycine, pH 8.5, and 1 mM EDTA, and then visualized by Odyssey Infrared Imaging System using Odyssey Software Release 1.1.
Since the NF-κB pathway is regulated by Akt protein, the effects of the FPA-124 on NF-κB activity was studied in an in vivo experiment, specifically the well-established orthotopic pancreatic tumor model using COLO 357 cells.

[11] = tested on: vascular endothelial growth factor (VEGF); assay: VEGF ELISA in BxPC3 cells; assay type: cell-based, human; details: 10 μM, 20 μM, 72 h
Protocol: B×PC3 cells (0.1×10^6/well) were plated into 6-well plates and incubated in supplemented RPMI containing 10% FBS.

[12] = tested on: PC3 cells; assay: Western blot of Akt, p-Akt and PARP in PC3 cells; assay type: cell-based, human; details: 10 and 20 μM, 72 h
Protocol: Control cells were incubated in the medium with Na2CO3 using same time point. After incubation the cells were lysed with This-HCl (62.5 mm) and 2% SDS. Protein concentration was then measured using […] protein assay (Pierce Chemical Co., Rockford, Ill.). Cell extracts were subjected to 10% SDS-PAGE and electrophoretically transferred to nitrocellulose membrane. Membranes were then incubated with monoclonal anti-Akt (epitome: amino acids 345-480 of Akt1, 1:500; Ontogeny, 26. San Diego, Calif.), anti-phosphor-Akt Ser473 (1:1000; Cell Signaling, Beverly, Mass.), primary monoclonal anti-PARP antibody (1:5000; Biomol, Plymouth Meeting, Pa.) and anti-β-actin (1:5000; Sigma) antibodies, washed with TTBS, and incubated with secondary antibody conjugated with peroxidase. The signal was then detected using the chemiluminescent detection system (Pierce, Rockford, Ill.).

[13] = tested on: breast cancer cell line (T47D); assay: Propidium iodide / Hoechst 33342 staining, apoptosis and cell viability; assay type: cell-based
Protocol: To provide further evidence of apoptosis, we carried out phase contrast microscopy using a mixture of propidium iodide (PI) and Hoechst dye 33342 to determine the integrity of cell membranes of cancer cells. The quantification of the apoptosis was carried out by cell count after staining with PI followed by visualization of treated cells by fluorescence analysis. […] After 5 minutes at 37° C. the cells were placed under a fluorescence microscope (Nikon Optiphot) with a filter block giving excitation at 380 nm and 480 nm.

[14] = tested on: Colo357, BxPC3, BT20, and PC3 cells; assay: Cell Death Detection ELISA apoptosis assay; assay type: cell-based; details: FPA-124, FPA-125, FPA-127 compared
Protocol: To determine whether the metal conjugates induce apoptosis in tumor cells, quantitative evaluation of apoptosis was carried out with a Cell Death Detection ELISA kit (Roche, Palo Alto, Calif.). Apoptosis was detected according to the protocol supplied by the manufacturer.
Since all copper compounds are redox active metal conjugates, we believe that redox triggered oxidative stress may be one of the underlying mechanisms for the observed apoptotic cell death in the present case. […] This observation is also in accordance with the favorable distortion factor calculated for the present copper compounds using EPR spectra, which factor helps stabilize cuprous and cupric species without dissociation of the conjugate.

[15] = 72 h, Table 1, read-out: MTT cell viability assay IC50 COLO357
[16] = FPA-102 25 mg/kg wt, i.v. on alternate days
[17] = 72 h, Table 1, read-out: MTT cell viability assay IC50 BxPC3
[18] = 72 h, Table 1, read-out: MTT cell viability assay IC50 PC3
[19] = 72 h, Table 1, read-out: MTT cell viability assay IC50 BT20

Q: Which results are given for `CC(=O)C1CCC2C3CCC4=CC(=NNC(N)=S)CCC4(C)C3CCC12C` (stereo not drawn) [FPA-101, 17-acetyl-10,13-dimethyl-1,2,6,7,8,9,11,12,13,14,15,16,17-tetradecahydrocyclopenta[a]phenantnren-3-thiosemicarbazone]?
A: IC50 ([1]; Homo sapiens, COLO357, 72 h, Table 1, read-out: MTT cell viability assay IC50 COLO357): 13 µM; IC50 ([2]; Homo sapiens, BXPC-3, 72 h, Table 1, read-out: MTT cell viability assay IC50 BxPC3): 5 µM; IC50 ([3]; Homo sapiens, MCF7, 72 h): 20 µM; concentration inhibiting Akt kinase activity [4]: higher concentration; IC50 ([5]; Homo sapiens, PC-3, 72 h, Table 1, read-out: MTT cell viability assay IC50 PC3): 16 µM; IC50 ([6]; Homo sapiens, BT-20, 72 h, Table 1, read-out: MTT cell viability assay IC50 BT20): 53 µM; IC50 ([7]; Homo sapiens, MDA-MB-231, 72 h): 25 µM; antiproliferative action against the cell lines tested ([8]; cell lines of Table 1): moderate antiproliferative action

Q: How did the IC50 [9] turn out when `CC(=O)C1CCC2C3CCC4=CC(=NNC(N)=S)CCC4(C)C3CCC12C.[Cl][Cu][Cl]` (stereo not drawn) [FPA-102] was run?
A: 5 µM

Q: What about the IC50 [1, 15] of the same molecule?
A: 9 µM

Q: What about the “body weight of treated mice vs control (toxicity)” value [10, 16] of the same molecule?
A: no significant change in the body weight

Q: What about the tumor burden [10, 16] of the same molecule?
A: decrease tumor burden

Q: What about the “NF-κB in tumor tissue (EMSA)” value ([10]; treatment for 10 days, once every alternate day) of the same molecule?
A: down-regulation of NF-κB

Q: What about the tumor histology ([10]; tumor from treated mice) of the same molecule?
A: marked necrosis and apoptosis

Q: What about the “viable part of tumor mass, histology” value ([10]; tumor from treated mice) of the same molecule?
A: 20%

Q: What about the VEGF levels [11] of the same molecule?
A: decrease in the VEGF levels

Q: And the IC50 [2, 17]?
A: 12.7 µM

Q: What about the IC50 ([3]; 72 h) of the same molecule?
A: 6 µM

Q: And the “PARP degradation, Western blot” value [12]?
A: induces poly (ADP-ribose) polymerase degradation

Q: And the “phosphor-Akt, Western blot” value [12]?
A: down regulates

Q: What about the IC50 [5, 18] of the same molecule?
A: 9 µM

Q: What about the IC50 [6, 19] of the same molecule?
A: 13 µM

Q: What about the IC50 ([7]; 72 h) of the same molecule?
A: 11 µM

Q: What about the IC50 ([8]; MCF-7, MDA-MB 231, T47D, BT20, PC3, BxPC3, COLO357, read-out: IC50 values, range over the cell lines of Table 1) of the same molecule?
A: 5 to 13 µM

Q: What about the apoptotic cells ([13]; IC50 concentration, 24-48 h treatment) of the same molecule?
A: ~95%

Q: What about the non-viable cells ([13]; IC50 concentration, 3 h incubation) of the same molecule?
A: 40%

Q: And the “cell death by uptake of propidium iodide” value ([13]; T47D, 10 μM, 72 hours)?
A: cells undergoing cell death by uptake of propidium iodide

Q: Which results are given for `CC(=O)C1CCC2C3CCC4=CC(=NNC(N)=S)CCC4(C)C3CCC12C.[Cl][Ni][Cl]` (stereo not drawn) [FPA-103]?
A: IC50 [1, 15]: 20 µM; IC50 ([3]; 72 h): 7.5 µM; concentration inhibiting Akt kinase activity [4]: higher concentration; IC50 [5, 18]: > 100 µM; IC50 [6, 19]: > 100 µM

Q: For `CC(=O)C1CCC2C3CCC4=CC(=NNC(N)=S)CCC4(C)C3CCC12C.[Cl][Pt][Cl]` (stereo not drawn) [FPA-104], which IC50 [1, 15] is on record?
A: 7.3 µM

Q: What about the IC50 [2, 17] of the same molecule?
A: 5 µM

Q: What about the IC50 ([3]; 72 h) of the same molecule?
A: 22 µM

Q: And the “concentration inhibiting Akt kinase activity” value [4]?
A: higher concentration

Q: And the IC50 [5, 18]?
A: 18 µM

Q: What about the IC50 [6, 19] of the same molecule?
A: 18 µM

Q: And the IC50 ([7]; 72 h)?
A: 34 µM

Q: Which results are given for `NC1=[S+][Cu-2]([Cl])([Cl])[N+](=Cc2coc3ccccc3c2=O)N1` [FPA-124]?
A: IC50 ([1]; Table 2, read-out: MTT Cell Proliferation Assay IC50 COLO357): 34 µM; NF-κB activity in tumor tissue (EMSA) ([10]; FPA-124 study): significantly decreased; body weight of the treated animals (toxicity) ([10]; FPA-124 study): no change in the body weight; tumor load (pancreas weight) ([10]; FPA-124 study): decrease in the tumor load; IC50 ([2]; Table 2, read-out: MTT Cell Proliferation Assay IC50 BxPC3): 55 µM; IC50 ([4]; read-out: Akt kinase activity IC50): 100 nM; IC50 ([5]; read-out: concentration for 50% cell kill, PC3 cells): 10 µM; apoptosis by ELISA, rank among metal conjugates [14]: most active compound; IC50 ([6]; read-out: concentration for 50% cell kill, BT20 cells): 7 µM

Q: Which IC50 ([1]; Homo sapiens, COLO357, Table 2, read-out: MTT Cell Proliferation Assay IC50 COLO357) does the source give for `O=c1c(-c2ccc(O)cc2)coc2cc(O)cc(O)c12` [Genistein, 4,5,7,-trihydroxyisoflavone, reference compound] here?
A: 50 µM

Q: What about the IC50 ([2]; Homo sapiens, BXPC-3, Table 2, read-out: MTT Cell Proliferation Assay IC50 BxPC3) of the same molecule?
A: 30 µM

Q: What about the IC50 ([4]; Table 2, read-out: Fluorescence Polarization Akt kinase Assay IC50) of the same molecule?
A: > 70000 nM

Q: What about the IC50 ([5]; Homo sapiens, PC-3, Table 2, read-out: MTT Cell Proliferation Assay IC50 PC3) of the same molecule?
A: 50 µM

Q: What about the IC50 ([6]; Homo sapiens, BT-20, Table 2, read-out: MTT Cell Proliferation Assay IC50 BT20) of the same molecule?
A: 46 to 70 µM

Q: And the IC50 ([8]; Pancreatic cancer cell, Colo357, BxPC3, BT20, PC3, read-out: IC50 values in these multiple cancer cell lines)?
A: > 40 µM
